# In patent publication US12643910B2, “Substituted pyrazolo[3,4-b]pyridines as ectonucleotide pyrophosphatase/phosphodiesterase 1 (ENPP1) modulators” (SANFORD BURNHAM PREBYS MEDICAL DISCOVERY INSTITUTE, priority 2019, dated 2026):
# Columns and labels:
# ENPP3 = target: T1, ENPP3 (Homo sapiens, UniProt O14638); experiment: ENPP3 Km ATP assay; type: biochemical; conditions: ATP at Km
# T1 sequence (O14638 1-875): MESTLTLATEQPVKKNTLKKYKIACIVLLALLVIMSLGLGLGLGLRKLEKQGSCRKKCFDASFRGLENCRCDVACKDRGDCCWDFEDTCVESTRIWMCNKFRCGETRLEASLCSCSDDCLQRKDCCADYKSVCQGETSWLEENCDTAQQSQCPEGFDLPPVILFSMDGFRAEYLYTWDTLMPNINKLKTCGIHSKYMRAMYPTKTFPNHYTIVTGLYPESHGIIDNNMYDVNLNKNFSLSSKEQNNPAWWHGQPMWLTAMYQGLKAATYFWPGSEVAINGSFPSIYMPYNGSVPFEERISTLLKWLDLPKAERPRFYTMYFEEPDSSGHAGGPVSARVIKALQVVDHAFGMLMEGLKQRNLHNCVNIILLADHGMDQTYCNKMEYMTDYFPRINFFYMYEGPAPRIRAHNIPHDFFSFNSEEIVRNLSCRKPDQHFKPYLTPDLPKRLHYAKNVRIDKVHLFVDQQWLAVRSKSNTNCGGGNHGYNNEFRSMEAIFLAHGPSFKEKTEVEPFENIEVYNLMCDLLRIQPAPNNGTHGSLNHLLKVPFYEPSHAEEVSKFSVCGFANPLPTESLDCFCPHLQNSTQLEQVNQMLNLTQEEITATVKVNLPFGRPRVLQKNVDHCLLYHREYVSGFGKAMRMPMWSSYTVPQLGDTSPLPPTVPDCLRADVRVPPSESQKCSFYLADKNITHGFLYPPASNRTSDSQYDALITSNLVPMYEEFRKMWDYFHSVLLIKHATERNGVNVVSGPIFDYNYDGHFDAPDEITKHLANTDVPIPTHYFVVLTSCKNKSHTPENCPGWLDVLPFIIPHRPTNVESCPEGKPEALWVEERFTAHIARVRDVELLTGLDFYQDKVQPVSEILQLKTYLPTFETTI
# human ENPP1 = target: T2, human ENPP1 (Homo sapiens, UniProt P22413); experiment: ENPP1 assay with ATP substrate (Transcreener AMP2/GMP2 TR-FRET); type: biochemical; conditions: 1 hour at room temperature
# T2 construct: made in house
# T2 sequence (P22413 1-925): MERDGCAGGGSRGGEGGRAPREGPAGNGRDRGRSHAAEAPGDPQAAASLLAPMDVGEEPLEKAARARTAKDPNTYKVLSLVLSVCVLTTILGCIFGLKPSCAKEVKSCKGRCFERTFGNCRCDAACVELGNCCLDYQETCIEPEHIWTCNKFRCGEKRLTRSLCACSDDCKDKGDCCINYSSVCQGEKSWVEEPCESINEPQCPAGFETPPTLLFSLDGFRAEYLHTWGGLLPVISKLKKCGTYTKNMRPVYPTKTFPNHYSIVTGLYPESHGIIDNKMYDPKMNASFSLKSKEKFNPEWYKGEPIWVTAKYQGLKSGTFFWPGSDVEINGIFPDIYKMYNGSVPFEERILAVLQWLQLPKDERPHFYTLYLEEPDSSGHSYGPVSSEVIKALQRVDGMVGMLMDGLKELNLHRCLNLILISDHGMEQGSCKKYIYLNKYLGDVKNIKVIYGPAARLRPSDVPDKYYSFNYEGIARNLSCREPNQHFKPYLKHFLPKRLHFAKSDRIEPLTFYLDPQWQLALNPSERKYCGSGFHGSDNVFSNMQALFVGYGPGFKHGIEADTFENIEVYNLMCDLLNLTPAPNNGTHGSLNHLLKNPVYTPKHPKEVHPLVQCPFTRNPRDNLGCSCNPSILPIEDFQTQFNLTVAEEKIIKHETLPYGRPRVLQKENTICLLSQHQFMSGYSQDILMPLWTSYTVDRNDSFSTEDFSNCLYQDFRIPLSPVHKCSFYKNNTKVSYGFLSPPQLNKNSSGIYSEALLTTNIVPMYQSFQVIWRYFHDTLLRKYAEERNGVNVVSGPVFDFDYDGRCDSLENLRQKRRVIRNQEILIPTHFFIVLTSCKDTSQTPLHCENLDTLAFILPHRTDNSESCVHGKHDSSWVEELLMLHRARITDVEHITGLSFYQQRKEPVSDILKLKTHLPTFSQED
# Method in brief: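 5′-AMP from ATP hydrolysis (300 nM ATP stock added; enzyme added as 8.5 μM stock) detected by competitive TR-FRET. Buffer: 50 mM Tris pH 7.5, 1 mM TCEP, 2 mM MgCl2, 0.005% Tween 20, 1% DMSO. Reaction 1 h at room temperature, EDTA stop. IC50 from 2-parameter variable-slope fit.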
smiles,measurement,setting,value
"Cn1ncc2c(NCc3ccc(S(N)(=O)=O)cc3)nc(-c3ccccn3)nc21 [Example 2.10, 4-(((1-Methyl-6-(pyridin-2-yl)-1H-pyrazolo[3,4-d]pyrimidin-4-yl)amino)methyl)-benzenesulfonamide]",IC50,ENPP3,1 to 20 µM
same,IC50,human ENPP1,< 0.1 µM
"Cn1ncc2c(NCc3ccc(S(N)(=O)=O)cc3)nc(N3CCCCC3)nc21 [Example 2.14, 4-(((1-Methyl-6-(piperidin-1-yl)-1H-pyrazolo[3,4-d]pyrimidin-4-yl)amino)methyl)-benzenesulfonamide]",IC50,ENPP3,0.1 to 1 µM
same,IC50,human ENPP1,1 to 20 µM
"Cn1ncc2c(N3CCC(NCCCc4ccncc4)CC3)nc(-c3ccccn3)nc21 [Example 2.20, 1-(1-Methyl-6-(pyridin-2-yl)-1H-pyrazolo[3,4-d]pyrimidin-4-yl)-N-(3-(pyridin-4-yl)propyl)piperidin-4-amine]",IC50,ENPP3,> 20 µM
same,IC50,human ENPP1,> 20 µM
"Cn1ncc2c(NCc3ccc(S(N)(=O)=O)s3)nc(-c3ccccn3)nc21 [Example 2.24, 5-(((1-Methyl-6-(pyridin-2-yl)-1H-pyrazolo[3,4-d]pyrimidin-4-yl)amino)methyl)thiophene-2-sulfonamide]",IC50,ENPP3,0.1 to 1 µM
same,IC50,human ENPP1,0.1 to 1 µM
"Cn1ncc2c(NCc3ccc(S(N)(=O)=O)cc3)ncnc21 [Example 2.25, 4-(((1-Methyl-1H-pyrazolo[3,4-d]pyrimidin-4-yl)amino)methyl)benzenesulfonamide]",IC50,ENPP3,1 to 20 µM
same,IC50,human ENPP1,< 0.1 µM
"Cc1nc(NCc2ccc(S(N)(=O)=O)cc2)c2cnn(C)c2n1 [Example 2.26, 4-(((1,6-Dimethyl-1H-pyrazolo[3,4-d]pyrimidin-4-yl)amino)methyl)benzenesulfonamide]",IC50,ENPP3,0.1 to 1 µM
same,IC50,human ENPP1,< 0.1 µM
"CNc1nc(NCc2ccc(S(N)(=O)=O)cc2)c2cnn(C)c2n1 [Example 2.27, 4-(((1-Methyl-6-(methylamino)-1H-pyrazolo[3,4-d]pyrimidin-4-yl)amino)methyl)-benzenesulfonamide]",IC50,ENPP3,0.1 to 1 µM
same,IC50,human ENPP1,< 0.1 µM
"CN(C)c1nc(NCc2ccc(S(N)(=O)=O)cc2)c2cnn(C)c2n1 [Example 2.28, 4-(((6-(Dimethylamino)-1-methyl-1H-pyrazolo[3,4-d]pyrimidin-4-yl)amino)methyl)-benzenesulfonamide]",IC50,ENPP3,0.1 to 1 µM
same,IC50,human ENPP1,1 to 20 µM
"Cn1ncc2c(NCc3ccc(S(N)(=O)=O)cc3)nc(N3CCOCC3)nc21 [Example 2.29, 4-(((1-Methyl-6-morpholino-1H-pyrazolo[3,4-d]pyrimidin-4-yl)amino)methyl)-benzenesulfonamide]",IC50,ENPP3,0.1 to 1 µM
same,IC50,human ENPP1,> 20 µM
"Cn1ncc2c(NCc3ccc(S(N)(=O)=O)cc3)nc(NC3CCCCC3)nc21 [Example 2.30, 4-(((6-(Cyclohexylamino)-1-methyl-1H-pyrazolo[3,4-d]pyrimidin-4-yl)amino)methyl)-benzenesulfonamide]",IC50,ENPP3,1 to 20 µM
same,IC50,human ENPP1,1 to 20 µM
"CCN(C)c1nc(NCc2ccc(S(N)(=O)=O)cc2)c2cnn(C)c2n1 [Example 2.31, 4-(((6-(Ethyl(methyl)amino)-1-methyl-1H-pyrazolo[3,4-d]pyrimidin-4-yl)amino)methyl)-benzenesulfonamide]",IC50,ENPP3,0.1 to 1 µM
same,IC50,human ENPP1,1 to 20 µM
"CN(Cc1ccccc1)c1nc(NCc2ccc(S(N)(=O)=O)cc2)c2cnn(C)c2n1 [Example 2.32, 4-(((6-(Benzyl(methyl)amino)-1-methyl-1H-pyrazolo[3,4-d]pyrimidin-4-yl)amino)methyl)-benzenesulfonamide]",IC50,ENPP3,0.1 to 1 µM
same,IC50,human ENPP1,> 20 µM
"CN1CCN(c2nc(NCc3ccc(S(N)(=O)=O)cc3)c3cnn(C)c3n2)CC1 [Example 2.34, 4-(((1-Methyl-6-(4-methylpiperazin-1-yl)-1H-pyrazolo[3,4-d]pyrimidin-4-yl)amino)methyl)-benzenesulfonamide]",IC50,ENPP3,0.1 to 1 µM
same,IC50,human ENPP1,> 20 µM
"Cn1ncc2c(NCc3ccc(S(N)(=O)=O)cc3)nc(NC3CC3)nc21 [Example 2.35, 4-(((6-(Cyclopropylamino)-1-methyl-1H-pyrazolo[3,4-d]pyrimidin-4-yl)amino)methyl)-benzenesulfonamide]",IC50,ENPP3,0.1 to 1 µM
same,IC50,human ENPP1,0.1 to 1 µM
"CN(c1ccccc1)c1nc(NCc2ccc(S(N)(=O)=O)cc2)c2cnn(C)c2n1 [Example 2.36, 4-(((1-Methyl-6-(methyl(phenyl)amino)-1H-pyrazolo[3,4-d]pyrimidin-4-yl)amino)methyl)-benzenesulfonamide]",IC50,ENPP3,0.1 to 1 µM
same,IC50,human ENPP1,> 20 µM
"Cn1ncc2c(NCc3ccc(S(N)(=O)=O)cc3)nc(N)nc21 [Example 2.37, 4-(((6-Amino-1-methyl-1H-pyrazolo[3,4-d]pyrimidin-4-yl)amino)methyl)-benzenesulfonamide]",IC50,ENPP3,0.1 to 1 µM
same,IC50,human ENPP1,0.1 to 1 µM
"NS(=O)(=O)c1ccc(CNc2ncnc3c2cnn3-c2ccccc2)cc1 [Example 2.38, 4-(((1-Phenyl-1H-pyrazolo[3,4-d]pyrimidin-4-yl)amino)methyl)benzenesulfonamide]",IC50,ENPP3,1 to 20 µM
same,IC50,human ENPP1,1 to 20 µM
"C=Cc1nc(NCc2ccc(S(N)(=O)=O)cc2)c2cnn(C)c2n1 [Example 2.39, 4-(((1-Methyl-6-vinyl-1H-pyrazolo[3,4-d]pyrimidin-4-yl)amino)methyl)benzenesulfonamide]",IC50,ENPP3,< 0.1 µM
same,IC50,human ENPP1,< 0.1 µM
"CCc1nc(NCc2ccc(S(N)(=O)=O)cc2)c2cnn(C)c2n1 [Example 2.40, 4-(((6-Ethyl-1-methyl-1H-pyrazolo[3,4-d]pyrimidin-4-yl)amino)methyl)benzenesulfonamide]",IC50,ENPP3,0.1 to 1 µM
same,IC50,human ENPP1,< 0.1 µM
"Cn1ncc2c(NCc3ccc(S(N)(=O)=O)c(C(F)(F)F)c3)ncnc21 [Example 2.41, 4-(((1-Methyl-1H-pyrazolo[3,4-d]pyrimidin-4-yl)amino)methyl)-2-(trifluoromethyl)-benzenesulfonamide]",IC50,ENPP3,1 to 20 µM
same,IC50,human ENPP1,0.1 to 1 µM
"COc1cc(CNc2ncnc3c2cnn3C)ccc1S(N)(=O)=O [Example 2.42, 2-Methoxy-4-(((1-methyl-1H-pyrazolo[34-d]pyrimidin-4-yl)amino)methyl)-benzenesulfonamide]",IC50,ENPP3,> 20 µM
same,IC50,human ENPP1,> 20 µM
"CN1CCC(n2ncc3c(NCc4ccc(S(N)(=O)=O)cc4)ncnc32)CC1 [Example 2.43, 4-(((1-(1-Methylpiperidin-4-yl)-1H-pyrazolo[3,4-d]pyrimidin-4-yl)amino)methyl)-benzenesulfonamide]",IC50,ENPP3,1 to 20 µM
same,IC50,human ENPP1,> 20 µM
"Cn1nc(-c2ccccc2)c2c(NCc3ccc(S(N)(=O)=O)cc3)ncnc21 [Example 2.44, 4-(((1-Methyl-3-phenyl-1H-pyrazolo[3,4-d]pyrimidin-4-yl)amino)methyl)-benzenesulfonamide]",IC50,ENPP3,< 0.1 µM
same,IC50,human ENPP1,< 0.1 µM
"Cc1nn(C)c2ncnc(NCc3ccc(S(N)(=O)=O)cc3)c12 [Example 2.45, 4-(((1,3-Dimethyl-1H-pyrazolo[3,4-d]pyrimidin-4-yl)amino)methyl)benzenesulfonamide]",IC50,ENPP3,0.1 to 1 µM
same,IC50,human ENPP1,0.1 to 1 µM
"Cc1cc(CNc2ncnc3c2cnn3C)ccc1S(N)(=O)=O [Example 2.46, 2-Methyl-4-(((1-methyl-1H-pyrazolo[3,4-d]pyrimidin-4-yl)amino)methyl)-benzenesulfonamide]",IC50,ENPP3,1 to 20 µM
same,IC50,human ENPP1,1 to 20 µM
